Data reported in ChEMBL document CHEMBL4011610, “Design, synthesis and optimization of 7-substituted-pyrazolo[4,3-b]pyridine ALK5 (activin receptor-like kinase 5) inhibitors” (Bioorg Med Chem Lett, 2017).

Experiments:
[1] = Hepatic extraction ratio in rat; assay type: ADME; details: read-out: ERH
[2] = Hepatic extraction ratio in human; assay type: ADME; details: read-out: ERH
[3] = target: T1, TGF-beta receptor type-1 (Homo sapiens, UniProt P36897); assay: Inhibition of ALK5 in human Calu6 cells assessed as reduction in Smad2/3 phosphorylation; assay type: cell-based
T1 sequence (P36897 whole entry): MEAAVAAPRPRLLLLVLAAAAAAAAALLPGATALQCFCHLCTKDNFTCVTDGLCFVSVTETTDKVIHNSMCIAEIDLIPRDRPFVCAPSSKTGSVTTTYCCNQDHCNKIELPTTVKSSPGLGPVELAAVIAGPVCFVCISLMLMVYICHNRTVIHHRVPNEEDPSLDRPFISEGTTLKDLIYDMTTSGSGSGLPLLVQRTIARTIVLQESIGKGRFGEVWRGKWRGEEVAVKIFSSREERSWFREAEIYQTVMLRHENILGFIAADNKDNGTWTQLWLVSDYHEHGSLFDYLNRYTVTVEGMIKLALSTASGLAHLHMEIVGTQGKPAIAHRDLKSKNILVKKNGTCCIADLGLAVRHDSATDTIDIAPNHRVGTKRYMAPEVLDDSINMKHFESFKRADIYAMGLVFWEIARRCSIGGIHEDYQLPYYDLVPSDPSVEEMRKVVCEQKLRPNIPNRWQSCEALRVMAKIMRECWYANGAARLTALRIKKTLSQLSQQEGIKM

[4] = target: T1, TGF-beta receptor type-1; assay: Inhibition of ALK5 (unknown origin) expressed in SBE-bla HEK293T cells assessed as decrease in TGFbeta1-induced Smad2/3 phosphorylation by beta lactamase reporter gene assay; assay type: cell-based
[5] = target: T1, TGF-beta receptor type-1; assay: Inhibition of recombinant N-terminal GST tagged human ALK5 (200 to 503 residues) expressed in baculovirus expression system using FAM-NH2-KVLTQMGSPSIRCSS[PO4]VS peptide as substrate after 90 mins by LanthaScreen TR-FRET assay
[6] = target: hERG (KCNH2) (Homo sapiens, UniProt Q12809); assay: Inhibition of human ERG expressed in CHOK1 cells at 10 uM by automated whole cell patch clamp Qpatch method relative to control; assay type: cell-based; details: CHO-K1 cells expressing human ERG
[7] = target: Cytochrome P450 3A4 (Homo sapiens, UniProt P08684); assay: Inhibition of CYP3A4 (unknown origin); assay type: ADME
[8] = Clearance in human microsomes; assay type: ADME, Microsome
[9] = Clearance in rat microsomes; assay type: ADME, Microsome
[10] = target: T2, Cytochrome P450 2C8 (Homo sapiens, UniProt P10632); assay: Inhibition of CYP2C8 (unknown origin); assay type: ADME
T2 sequence (P10632 whole entry): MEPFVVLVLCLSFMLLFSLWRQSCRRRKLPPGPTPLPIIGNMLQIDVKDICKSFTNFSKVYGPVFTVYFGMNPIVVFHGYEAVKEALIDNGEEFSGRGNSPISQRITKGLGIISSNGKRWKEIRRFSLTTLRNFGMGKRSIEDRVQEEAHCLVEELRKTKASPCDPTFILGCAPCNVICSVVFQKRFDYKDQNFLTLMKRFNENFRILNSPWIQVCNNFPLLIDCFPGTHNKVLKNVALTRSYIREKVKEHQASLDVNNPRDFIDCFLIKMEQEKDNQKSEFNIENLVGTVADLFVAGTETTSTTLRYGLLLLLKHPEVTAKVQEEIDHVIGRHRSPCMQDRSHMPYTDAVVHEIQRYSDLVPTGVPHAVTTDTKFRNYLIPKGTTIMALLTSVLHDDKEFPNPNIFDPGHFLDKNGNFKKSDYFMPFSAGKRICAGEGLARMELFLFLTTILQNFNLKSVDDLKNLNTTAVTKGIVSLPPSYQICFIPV

[11] = Oral bioavailability in rat; assay type: ADME, organism-based; details: in vivo
[12] = Clearance in rat; assay type: ADME; details: in vivo

Sequence of hERG (KCNH2) (Q12809 whole entry): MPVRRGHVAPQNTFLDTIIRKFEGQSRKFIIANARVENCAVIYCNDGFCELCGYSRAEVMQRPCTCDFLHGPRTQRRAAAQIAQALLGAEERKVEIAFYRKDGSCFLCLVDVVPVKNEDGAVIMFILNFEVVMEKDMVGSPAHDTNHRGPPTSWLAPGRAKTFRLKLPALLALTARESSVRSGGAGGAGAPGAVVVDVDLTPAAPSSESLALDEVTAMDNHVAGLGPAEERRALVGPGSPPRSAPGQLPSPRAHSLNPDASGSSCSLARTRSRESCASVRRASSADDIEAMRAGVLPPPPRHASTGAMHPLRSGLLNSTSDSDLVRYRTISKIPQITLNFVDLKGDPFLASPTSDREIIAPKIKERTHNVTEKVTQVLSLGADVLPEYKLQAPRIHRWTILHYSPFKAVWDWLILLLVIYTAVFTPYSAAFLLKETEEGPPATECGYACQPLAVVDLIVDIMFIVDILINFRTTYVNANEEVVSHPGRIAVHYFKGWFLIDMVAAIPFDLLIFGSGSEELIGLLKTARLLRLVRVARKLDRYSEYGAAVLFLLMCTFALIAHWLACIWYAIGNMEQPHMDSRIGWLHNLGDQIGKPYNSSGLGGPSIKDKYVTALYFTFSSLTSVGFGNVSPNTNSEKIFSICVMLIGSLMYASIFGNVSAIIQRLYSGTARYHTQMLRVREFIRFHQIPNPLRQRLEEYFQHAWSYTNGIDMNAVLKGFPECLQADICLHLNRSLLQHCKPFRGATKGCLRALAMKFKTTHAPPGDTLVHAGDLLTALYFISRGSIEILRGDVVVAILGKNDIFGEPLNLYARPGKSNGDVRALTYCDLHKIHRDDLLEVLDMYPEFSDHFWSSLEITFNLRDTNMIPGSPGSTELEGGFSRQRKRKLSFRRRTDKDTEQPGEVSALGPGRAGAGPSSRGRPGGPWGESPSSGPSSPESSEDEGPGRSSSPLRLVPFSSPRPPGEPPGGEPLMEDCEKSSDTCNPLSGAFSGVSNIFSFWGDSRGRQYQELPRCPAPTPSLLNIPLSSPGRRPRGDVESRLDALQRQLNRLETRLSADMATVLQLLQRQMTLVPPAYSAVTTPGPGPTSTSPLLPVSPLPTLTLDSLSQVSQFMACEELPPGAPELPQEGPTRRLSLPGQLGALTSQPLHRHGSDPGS
Sequence of Cytochrome P450 3A4 (P08684 whole entry): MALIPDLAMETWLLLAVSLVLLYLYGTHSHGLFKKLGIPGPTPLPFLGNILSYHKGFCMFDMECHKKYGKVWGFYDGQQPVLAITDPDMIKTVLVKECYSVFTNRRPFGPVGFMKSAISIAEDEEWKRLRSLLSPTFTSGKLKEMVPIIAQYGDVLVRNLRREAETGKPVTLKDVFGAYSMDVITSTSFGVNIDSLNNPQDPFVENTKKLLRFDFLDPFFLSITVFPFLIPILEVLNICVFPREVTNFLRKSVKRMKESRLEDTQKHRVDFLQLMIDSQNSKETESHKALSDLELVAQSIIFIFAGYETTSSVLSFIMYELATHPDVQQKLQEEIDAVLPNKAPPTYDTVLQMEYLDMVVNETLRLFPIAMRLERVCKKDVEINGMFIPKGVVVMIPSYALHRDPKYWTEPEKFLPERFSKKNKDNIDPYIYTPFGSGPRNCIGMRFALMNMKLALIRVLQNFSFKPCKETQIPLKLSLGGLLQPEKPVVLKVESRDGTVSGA

hepatic extraction ratio [1]	hepatic extraction ratio [2]	EC50 [3] [nM]	EC50 [4] [nM]	IC50 [5] [nM]	SMILES	further results
0.29	0.53	158	31.6		CCNC(=O)n1ncc2nccc(Nc3ccnc(-c4cc(F)ccc4F)c3)c21	
				631	COc1cccc2nccc(Nc3ccnc(-c4ccccc4)c3)c12	
				12.6	COc1cccc2nccc(Nc3cc(-c4cc(C)ccc4F)ncc3C)c12	
0.56	0.46	31.6	12.6		Cc1cnc(-c2cc(Cl)ccc2F)cc1Nc1ccnc2cn(CC(N)=O)nc12	inhibition at 10 µM [6]: 41 to 59%; IC50 [7]: > 50100 nM
				25.1	COc1cccc2nccc(Nc3ccnc(-c4cc(C)ccc4F)c3)c12	
			20	12.6	Cc1ccc(F)c(-c2cc(Nc3ccnc4cnn(CCO)c34)c(C)cn2)n1	
0.31	0.57	63.1	25.1	3.16	CNC(=O)n1ncc2nccc(Nc3ccnc(-c4cc(Cl)ccc4F)c3)c21	
0.42	0.44	1580	251		NC(=O)Cn1cc2nccc(Nc3ccnc(-c4cc(F)ccc4F)c3)c2n1	
0.57	0.53	1260	200		NC(=O)Cn1ncc2nccc(Nc3ccnc(-c4cc(F)ccc4F)c3)c21	
0.68	0.79	158	126		Cc1cnc(-c2cc(F)ccc2F)cc1Nc1ccnc2cn(CC(C)O)nc12 (centres undefined)	
				50.1	COc1cccc2nccc(Nc3cc(-c4cc(Cl)ccc4F)ncc3C3CC3)c12	
				25.1	CCc1cnc(-c2cc(Cl)ccc2F)cc1Nc1ccnc2cccc(OC)c12	
		158	15.8	10	CCn1cc2nccc(Nc3cc(-c4cc(C)ccc4F)ncc3C)c2n1	
0.54	0.64	20	7.94	3.16	Cc1cnc(-c2cc(F)ccc2F)cc1Nc1ccnc2cnn(CC(C)O)c12 (centres undefined)	
				39.8	COc1cccc2nccc(Nc3ccnc(-c4nc(C)ccc4F)c3)c12	
0.54	0.52		100	12.6	NC(=O)Cn1cc2nccc(Nc3ccnc(-c4cc(Cl)ccc4F)c3)c2n1	inhibition at 10 µM [6]: 41 to 59%; IC50 [7]: 12600 nM
		200	31.6	5.01	Cc1cccc(-c2cc(Nc3ccnc4cn[nH]c34)c(C)cn2)n1	

hepatic extraction ratio [1]	hepatic extraction ratio [2]	EC50 [3] [nM]	EC50 [4] [nM]	IC50 [5] [nM]	SMILES	further results
0.16	0.36		1000	100	Fc1ccc(Cl)cc1-c1cc(Nc2ccnc3cn(CC4CCNCC4)nc23)ccn1	
			50.1	6.31	Fc1ccc(Cl)cc1-c1cc(Nc2ccnc3cn[nH]c23)ccn1	
				31.6	COc1cccc2nccc(Nc3cc(-c4cccc(Cl)c4)ncc3C)c12	
0.27	0.55	126	20	2.51	CNC(=O)n1ncc2nccc(Nc3ccnc(-c4cc(F)ccc4F)c3)c21	
				316	COc1cccc2nccc(Nc3ccnc(-c4cccc(Cl)c4)c3)c12	
				12.6	COc1cccc2nccc(Nc3cc(-c4cc(Cl)ccc4F)ncc3C)c12	inhibition at 10 µM [6]: 94%; CLint scaled [8]: 86 mL/min/kg; CLint scaled [9]: 302 mL/min/kg
0.84	0.74	31.6	7.94		Cc1cnc(-c2cc(F)ccc2F)cc1Nc1ccnc2cn[nH]c12	IC50 [7]: 1580 nM; IC50 [10]: 316 nM
0.44	0.54	31.6	20		Cc1cnc(-c2cc(Cl)ccc2F)cc1Nc1ccnc2cnn(CC(N)=O)c12	inhibition at 10 µM [6]: 41 to 59%; bioavailability [11]: 71%; IC50 [7]: 12600 nM; clearance [12]: 42 mL/min/kg
0.2	< 0.23	20	25.1		CNC(=O)n1ncc2nccc(Nc3cc(-c4cc(F)ccc4F)ncc3C)c21	
0.3	0.3	501	100	7.94	Cc1ccc(F)c(-c2cc(Nc3ccnc4cnn(C[C@@H](C)O)c34)c(C)cn2)n1	inhibition at 10 µM [6]: 42%; bioavailability [11]: 38%
0.74	0.57	31.6		2.51	Cc1ccc(F)c(-c2cc(Nc3ccnc4cn[nH]c34)c(C)cn2)n1	IC50 [7]: 6310 nM; IC50 [10]: 2510 nM
				15.8	Cc1ccc(F)c(-c2cc(Nc3ccnc4cn[nH]c34)ccn2)c1	
				20	COc1cccc2nccc(Nc3ccnc(-c4cc(Cl)ccc4F)c3)c12	
0.75	0.57		31.6	15.8	Cc1cnc(-c2cc(Cl)ccc2F)cc1Nc1ccnc2cn[nH]c12	IC50 [7]: 3160 nM; IC50 [10]: 398 nM
0.52	0.51		31.6	15.8	CNC(=O)n1ncc2nccc(Nc3cc(-c4cc(Cl)ccc4F)ncc3C)c21	
0.93	0.91				Fc1ccc(Cl)cc1-c1cc(Nc2ccnc3cnn(CC4CCNCC4)c23)ccn1	
